Test results taken from patent US10501741B2, “Methods and compositions for inhibiting growth and epithelial to mesenchymal transition (EMT) in cancer cells” (Cold Spring Harbor Laboratory, priority 2014, dated 2019).
Entries after “also recorded” stand apart in the source; their conditions may differ.

Columns and labels:
E-cadherin = E-cadherin mRNA upon H2O2 treatment (SYBR-green real-time RT-PCR); assay type: cell-based
Experimental: (§1) FIG. 7A presents Western blot analysis of A549 cells ectopically expressing p53Ψ upon transfection with two independent siRNA targeting cyclophilin D (CypD). […] Data represent expression levels compared to actin (mean±SD, n=6; p<0.0001, Student's t-test) as measured by SYBR-green-based real-time RT-PCR. […] Cell motility was measured in a standard wound healing experiment. […] Each bar represents the average of four individual wounds. […] Data represent relative expression compared to the vector control (mean±SD, n=6; p<0.0001, Student's t-test). […] Cells were treated for 5 days with 10 mM NAC. FIG. 7F presents a schematic of a proposed mechanism of the p53Ψ-induced EMT. Upon acute oxidative stress, p53FL was previously shown to interact with CypD and trigger necrotic cell death by opening mPTP pore (left panel).
(§2) To determine whether CypD and ROS have a causative role in EMT mediated by p53Ψ, CypD and ROS levels were modulated in cells ectopically expressing p53Ψ (A549, MCF7, H1299) and their effects on expression of EMT markers and cell invasion were assessed.

[1] = tested on: A549 cells expressing p53Ψ; assay: epistasis experiment: CypD silencing and NAC, E-cadherin Western blot; assay type: cell-based, human
Experimental: (§3) Data shown represent relative expression compared to ectopic expression of a vector control (mean±SD, n=6; p<0.0001, Student's t-test). […] Cells were also treated with 10 mM NAC for 5 days. The cell extracts were probed for E-cadherin, p53, CypD, and as a control GAPDH. […] Cells were treated with 10 mM NAC or 500 μM Tempol for 5 days, then extracts were probed for E-cadherin, p53 and GAPDH as indicated. […] Cells were grown in the presence or absence of NAC (10 mM). After 5 days, the invasive potential of cells was determined using a standard Matrigel invasion assay. Filter chambers were coated with 40 μl Matrigel and invasion was assessed after 30 hours.
To exclude the possibility that ROS-induced EMT was independent of CypD in p53Ψ-expressing cells, epistasis experiments were performed. Specifically, E-cadherin expression was measured upon manipulation of ROS levels (e.g. by NAC treatment) in cells ectopically expressing p53Ψ in the presence and absence of CypD (FIG. 13B). If CypD and p53Ψ act on parallel pathways, an additive effect of CypD silencing and ROS inhibition would be predicted. In contrast, if p53Ψ acts solely through CypD, then CypD silencing would be sufficient to reduce ROS levels and no additive effect would be observed. […] This in turn is necessary and sufficient for p53Ψ-induced EMT (FIG. 7F, right panel).

[2] = tested on: A549 cells ectopically expressing p53Ψ; assay: E-cadherin expression with ROS scavengers; assay type: cell-based, human; conditions: 10 mM NAC or 500 μM Tempol for 5 days
Experimental: as §1
Data shown represent relative expression compared to ectopic expression of a vector control (mean±SD, n=6; p<0.0001, Student's t-test). […] After 5 days, the invasive potential of cells was determined using a standard Matrigel invasion assay. Filter chambers were coated with 40 μl Matrigel and invasion was assessed after 30 hours.
as §2

[3] = tested on: A549 cells ectopically expressing p53Ψ; assay: Matrigel invasion assay; assay type: cell-based, human; conditions: NAC 10 mM, 5 days, invasion assessed after 30 hours
Experimental: as §3, §2

HOP62 cells = assay: p53Ψ silencing in HOP62 cells (morphology, qRT-PCR of EMT markers); assay type: cell-based, human
Excerpt: Representative micrographs are presented showing cells 4 days after transfection with a mixture of two independent siRNA oligonucleotides targeting p53. […] No difference in Snail expression was observed. Data shown represent relative expression levels compared to actin (mean±SD, n=6; p<0.0001, Student's t-test) as measured by SYBR-green-based real-time RT-PCR. […] Level of expression of p53FL and p53Ψ in MCF7 are provided in FIGS. 11B and 10E, respectively. FIG. 4D presents qRT-PCR analysis of the canonical EMT markers E-cadherin (ECAD) and vimentin (VIM) as well as the EMT master regulators Snail, Slug, Twist, and Zeb1, in H1299 cells ectopically expressing p53Ψ or p53FL. Data shown represent relative expression levels compared to actin (mean±SD, n=6; p<0.0001, Student's t-test) as measured by SYBR-green-based real-time RT-PCR. FIG. 4E depicts the percent wound closure at the indicated time points in a 2D monolayer of A549 cells expressing p53Ψ, p53FL, or vector control. […] Filter chambers were coated with 40 μl Matrigel, and invasion was assessed after 30 hours. TGF-β treated cells were used as a positive control.
Somatic alterations of the p53 tumor suppressor gene located on chromosome 17p often occur in cancers and are associated with poor prognosis. In these tumors, p53 mutations disable p53-mediated inhibition of proliferation and promotion of apoptosis in response to stress. In addition, missense p53 mutations may have gain-of-function activities that lead to an increased metastatic spread. […] To test this hypothesis p53Ψ expression was silenced in HOP62 cells. These mesenchymal cells are homozygous for the c.673−2A to G mutation and inherently express exclusively a p53Ψ-like isoform (FIG. 2I and FIG. 9O). […] Cells in which p53Ψ expression was silenced lost the elongated appearance typical of mesenchymal-like cells and instead acquired a cobblestone morphology characteristic of epithelial cells (FIG. 4A).

[4] = tested on: mitochondrial permeability transition pore (mPTP) in A549 cells expressing p53Ψ; assay: calcein AM assay of mPTP permeability; assay type: cell-based, human; conditions: ionomycin 50 nM, control; all experimental settings
Excerpt: In this assay, cells are loaded with Calcein (acetomethylester) together with its quencher Cobalt ions. Calcein freely diffuses throughout the cell including into the mitochondrial matrix. But the Cobalt quencher cannot diffuse across the inner mitochondrial membrane, therefore quenching Calcein fluorescence everywhere except in the mitochondrial matrix. Thus, Calcein fluorescence comes only from the matrix. Only upon PTP opening will Cobalt ions gain access to the matrix and quench Calcein, resulting in a sharp drop of mitochondrial fluorescence, which can be measured by FACS or microscopy (FIG. 6B).

[5] = tested on: cells ectopically expressing p53Ψ (A549, MCF7, H1299); assay: EMT induction by p53Ψ upon modulation of CypD; assay type: cell-based, human
Experimental: as §2

[6] = tested on: H1299 cells ectopically expressing p53Ψ; assay: qRT-PCR of EMT markers in H1299 cells; assay type: cell-based, human; conditions: 2 mM CsA for 5 days
[7] = tested on: MCF7 cells ectopically expressing p53Ψ; assay: real-time PCR of EMT markers in MCF7 cells; assay type: cell-based, human; conditions: CsA 2 mM for 5 days
[8] = tested on: A549 cells ectopically expressing p53Ψ; assay: wound healing (cell motility) assay; assay type: cell-based, human; conditions: 2 mM CsA for 5 days, closure at 48 hours
Experimental: as §1, §2

[9] = tested on: A549 cells expressing p53Ψ; assay: MitoSOX staining of mitochondrial superoxide; assay type: cell-based, human; conditions: MitoSOX 1 μM
Experimental: FIG. 6A presents Western blot analysis of mitochondrial fractions of A549 cells ectopically expressing p53Ψ. The fractions were immunoprecipitated with a CypD-specific antibody and probed with a p53 N-terminal antibody, or CypD and Smurf1 antibodies as controls. […] FIG. 6B depicts a schematic of the calcein AM assay. […] The fluorescence was detected by laser confocal microscopy after 15 minutes. Non-mitochondrial calcein fluorescence was quenched by co-treatment with CoCl2. Treatment with the ionophore ionomycin (50 nM) was used as a control. […] FIG. 6D presents the % decrease in calcein fluorescence upon quenching of cytosolic calcein with CoCl2 in three independent experiments. The median calcein fluorescence was assessed by FACS. Calcein was loaded at 10 nM and detected after 15 minutes at 515 nm upon excitation with Red HeNe at 495 nm. Treatment with ionomycin was used as a control to estimate basal fluorescence. FIG. 6E presents representative fluorescence microscopy images of A549 cells loaded with MitoSOX (1 μM). Images show the fluorescence upon excitation at 390 nm, mainly from the hydroxyethidium derivative. DAPI was used as a counterstain. FIG. 6F presents the quantification of the MitoSox-positive fractions in three independent FACS experiments from FIG. 6E. […]

OO [H2O2]
cell viability (E-cadherin; low doses of H2O2): without compromising cell viability
expression of E-cadherin (E-cadherin; low doses of H2O2 for 5 days): decreased the expression of E-cadherin

CC(=O)N[C@@H](CS)C(=O)O [NAC, N-acetyl cysteine]
E-cadherin expression in cells in which CypD was silenced ([1]; CypD siRNA, 10 mM NAC for 5 days): did not increase E-cadherin expression
expression of E-cadherin [2]: augmented expression of E-cadherin
invasive capabilities (Matrigel invasion) [3]: decreased invasive capabilities; also recorded: sufficient to decrease the invasion capabilities

p53 siRNA: siRNA GGGTTAGTTTACAATCAGC (SEQ ID NO:5); GGTGAACCTTAGTACCTAA (SEQ ID NO:6), from Invitrogen (listed as DNA, chemistry not given here)
cell morphology (HOP62 cells; 4 days after transfection with two siRNA targeting p53): loss of mesenchymal-like features and the acquisition of an epithelial morphology
Snail expression (HOP62 cells; p53 siRNA): No difference
expression of E-cadherin (HOP62 cells; p53Ψ knockdown): increased expression of E-cadherin
expression of vimentin, Zeb1, Twist and Slug (HOP62 cells; p53Ψ knockdown): diminished expression

CC1(C)CC(O)CC(C)(C)N1[O] [Tempol]
expression of E-cadherin [2]: augmented expression of E-cadherin
invasive capabilities (Matrigel invasion) [3]: decreased invasive capabilities

C[C@H](CCC(=O)O)C[C@H](C)C[C@H](C)C(=O)/C=C(\O)[C@H](C)C[C@H](C)C/C=C/[C@@H](C)[C@@H](O)[C@@H](C)[C@@H](O)C[C@@H]1CC[C@@](C)([C@H]2CC[C@@](C)([C@@H](C)O)O2)O1 [ionomycin]
mitochondria calcein fluorescence [4]: rapid loss of mitochondria calcein fluorescence

CypD siRNA: siRNA AGGCAGATGTCGTCCCAAA (SEQ ID NO:10); CGACTTCACCAACCACAAT (SEQ ID NO:11), from Invitrogen (listed as DNA, chemistry not given here)
EMT in cells expressing p53Ψ [5]: sufficient to prevent EMT
p53Ψ-induced EMT ([1]; CypD silenced): blocked p53Ψ-induced EMT

cyclosporin A [CsA]
expression of E-cadherin (qRT-PCR) [6]: restore expression of E-cadherin to a level similar to that observed in control cells
expression of EMT markers (qRT-PCR) [6]: reduce expression of EMT markers
EMT in cells expressing p53Ψ [5]: sufficient to prevent EMT
expression of E-cadherin (real-time PCR) [7]: restore expression of E-cadherin to levels similar to parental cells
expression of EMT markers (real-time PCR) [7]: reduce expression of EMT markers
cell motility (wound healing) [8]: diminish cell motility
MitoSOX fluorescence (mitochondrial superoxide) [9]: decreased
